{"source": "patent US12344597B2", "about": "“Alkoxy-substituted pyridinyl derivatives as LPA1 receptor antagonists and their use in the treatment of fibrosis” (IDORSIA PHARMACEUTICALS LTD, priority 2018, dated 2025)", "molecular_target": "human LPA1 receptor (Homo sapiens (Human), UniProt Q92633)", "sequence (Q92633 whole entry, the tested form may be a part)": "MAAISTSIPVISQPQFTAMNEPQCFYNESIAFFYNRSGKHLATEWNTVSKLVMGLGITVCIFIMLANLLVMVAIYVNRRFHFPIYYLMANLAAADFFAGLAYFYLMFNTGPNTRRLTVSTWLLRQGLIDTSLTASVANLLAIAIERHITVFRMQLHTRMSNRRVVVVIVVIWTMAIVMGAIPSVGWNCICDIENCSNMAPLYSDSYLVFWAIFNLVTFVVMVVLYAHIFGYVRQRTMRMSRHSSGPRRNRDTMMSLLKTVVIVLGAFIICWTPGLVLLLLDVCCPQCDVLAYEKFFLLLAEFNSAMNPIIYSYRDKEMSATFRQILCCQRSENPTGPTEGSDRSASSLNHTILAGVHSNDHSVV", "test": "Beta-arrestin recruitment assay to determine IC50 values for human LPAR1", "format": "cell-based", "details": "antagonist mode, Tango EDG2-bla U2OS cells, LPA 18:1 500 nM final", "summary_of_the_method": "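Tango EDG2-bla U2OS cells: LPA-driven beta-arrestin/TEV protease recruitment releases Gal4-VP16, inducing beta-lactamase reporter read with live-cell substrate. Cells seeded 20 h at 37 °C beforehand. IC50 is antagonist concentration inhibiting 50% of maximal response.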", "data": [{"molecule": "CNC(C)(C)CN1CC(C(=O)Nc2ccc(C)nc2OC(F)F)(c2ccccc2C(C)C)C1", "note": "[Ex 11-64, N-(2-(difluoromethoxy)-6-methylpyridin-3-yl)-3-(2-isopropylphenyl)-1-(2-methyl-2-(methylamino)propyl)azetidine-3-carboxamide]", "values": [{"measurement": "IC50", "result": 63, "unit": "nM"}]}, {"molecule": "Cc1ccc(NC(=O)C2(c3ccccc3C(C)C)CN(c3ncncc3F)C2)c(OC(F)F)n1", "note": "[Ex 18-20, N-(2-(difluoromethoxy)-6-methylpyridin-3-yl)-1-(5-fluoropyrimidin-4-yl)-3-(2-isopropylphenyl)azetidine-3-carboxamide]", "values": [{"measurement": "IC50", "result": 2, "unit": "nM"}]}, {"molecule": "Cc1ccc(NC(=O)C2(c3ccccc3C(C)C)CN(C(=O)OCC(C)(C)C(=O)O)C2)c(OC(F)F)n1", "note": "[Ex 14-10, 3-((3-((2-(difluoromethoxy)-6-methylpyridin-3-yl)carbamoyl)-3-(2-isopropylphenyl)azetidine-1-carbonyl)oxy)-2,2-dimethylpropanoic acid]", "values": [{"measurement": "IC50", "result": 4, "unit": "nM"}]}, {"molecule": "Cc1ccc(NC(=O)C2(c3ccccc3C(C)C)CN(C(=O)CS(N)(=O)=O)C2)c(OC(F)F)n1", "note": "[Ex 12-4, N-(2-(difluoromethoxy)-6-methylpyridin-3-yl)-3-(2-isopropylphenyl)-1-(2-sulfamoylacetyl)azetidine-3-carboxamide]", "values": [{"measurement": "IC50", "result": 20, "unit": "nM"}]}, {"molecule": "Cc1ccc(NC(=O)C2(c3ccccc3C(C)C)CN(S(=O)(=O)CCCCC(=O)O)C2)c(OC(F)F)n1", "note": "[Ex 13-19, 5-((3-((2-(difluoromethoxy)-6-methylpyridin-3-yl)carbamoyl)-3-(2-isopropylphenyl)azetidin-1-yl)sulfonyl)pentanoic acid]", "values": [{"measurement": "IC50", "result": 55, "unit": "nM"}]}, {"molecule": "COc1ccc(C(C)C)c(C2(C(=O)Nc3ccc(C)nc3OC(F)F)CN(C(=O)CC(C)(C)C(=O)O)C2)c1", "note": "[Ex 39-6, 4-(3-((2-(difluoromethoxy)-6-methylpyridin-3-yl)carbamoyl)-3-(2-isopropyl-5-methoxyphenyl)azetidin-1-yl)-2,2-dimethyl-4-oxobutanoic acid]", "values": [{"measurement": "IC50", "result": 56, "unit": "nM"}]}, {"molecule": "Cc1ccc(NC(=O)C2(c3ccccc3C(C)C)CN(S(=O)(=O)NCC(=O)O)C2)c(OC(F)F)n1", "note": "[Ex 15-2, ((3-((2-(difluoromethoxy)-6-methylpyridin-3-yl)carbamoyl)-3-(2-isopropylphenyl)azetidin-1-yl)sulfonyl)glycine]", "values": [{"measurement": "IC50", "result": 7, "unit": "nM"}]}, {"molecule": "Cc1ccc(NC(=O)C2(c3ccccc3C(C)C)CN(C(=O)CCC(=O)O)C2)c(OC(F)F)n1", "note": "[Ex 12-71, 4-(3-((2-(difluoromethoxy)-6-methylpyridin-3-yl)carbamoyl)-3-(2-isopropylphenyl)azetidin-1-yl)-4-oxobutanoic acid]", "values": [{"measurement": "IC50", "result": 10, "unit": "nM"}]}, {"molecule": "Cc1ccc(NC(=O)C2(c3ccccc3C(C)C)CN(C(=O)CNC[C@H](C)O)C2)c(OC(F)F)n1", "note": "[Ex 12-56, (S)-N-(2-(difluoromethoxy)-6-methylpyridin-3-yl)-1-((S)-(2-hydroxypropyl)glycyl)-3-(2-isopropylphenyl)azetidine-3-carboxamide]", "values": [{"measurement": "IC50", "result": 7, "unit": "nM"}]}, {"molecule": "COC(=O)c1ccc(N2CC(C(=O)Nc3ccc(C)nc3OC(F)F)(c3ccccc3C(C)C)C2)nn1", "note": "[Ex 18-6, methyl 6-(3-((2-(difluoromethoxy)-6-methylpyridin-3-yl)carbamoyl)-3-(2-isopropylphenyl)azetidin-1-yl)pyridazine-3-carboxylate]", "values": [{"measurement": "IC50", "result": 10, "unit": "nM"}]}, {"molecule": "Cc1ccc(NC(=O)C2(c3ccccc3C(C)C)CN(CC(C)(C)CC(=O)O)C2)c(OC(F)F)n1", "note": "[Ex 11-33, 4-(3-((2-(difluoromethoxy)-6-methylpyridin-3-yl)carbamoyl)-3-(2-isopropylphenyl)azetidin-1-yl)-3,3-dimethylbutanoic acid]", "values": [{"measurement": "IC50", "result": 8, "unit": "nM"}]}, {"molecule": "Cc1ccc(NC(=O)C2(c3ccccc3C(C)C)CN(c3cc(F)ccn3)C2)c(OC(F)F)n1", "note": "[Ex 18-18, N-(2-(difluoromethoxy)-6-methylpyridin-3-yl)-1-(4-fluoropyridin-2-yl)-3-(2-isopropylphenyl)azetidine-3-carboxamide]", "values": [{"measurement": "IC50", "result": 1, "unit": "nM"}]}, {"molecule": "CC(C)c1ccccc1C1(C(=O)Nc2cccnc2OC(F)F)CN(c2ncc(C#N)cn2)C1", "note": "[Ex 18-25, 1-(5-cyanopyrimidin-2-yl)-N-(2-(difluoromethoxy)pyridin-3-yl)-3-(2-isopropylphenyl)azetidine-3-carboxamide]", "values": [{"measurement": "IC50", "result": 5, "unit": "nM"}]}, {"molecule": "COC(=O)c1cc(S(=O)(=O)N2CC(C(=O)Nc3ccc(C)nc3OC(F)F)(c3ccccc3C(C)C)C2)on1", "note": "[Ex 13-26, methyl 5-((3-((2-(difluoromethoxy)-6-methylpyridin-3-yl)carbamoyl)-3-(2-isopropylphenyl)azetidin-1-yl)sulfonyl)isoxazole-3-carboxylate]", "values": [{"measurement": "IC50", "result": 25, "unit": "nM"}]}, {"molecule": "COC(=O)c1cnc(CN2CC(C(=O)Nc3ccc(C)nc3OC(F)F)(c3ccccc3C(C)C)C2)cn1", "note": "[Ex 11-54, methyl 5-((3-((2-(difluoromethoxy)-6-methylpyridin-3-yl)carbamoyl)-3-(2-isopropylphenyl)azetidin-1-yl)methyl)pyrazine-2-carboxylate]", "values": [{"measurement": "IC50", "result": 95, "unit": "nM"}]}, {"molecule": "COC(=O)C(C)(C)CS(=O)(=O)N1CC(C(=O)Nc2ccc(C)nc2OC(F)F)(c2ccccc2C(C)C)C1", "note": "[Ex 13-11, methyl 3-((3-((2-(difluoromethoxy)-6-methylpyridin-3-yl)carbamoyl)-3-(2-isopropylphenyl)azetidin-1-yl)sulfonyl)-2,2-dimethylpropanoate]", "values": [{"measurement": "IC50", "result": 366, "unit": "nM"}]}, {"molecule": "Cc1ccc(NC(=O)C2(c3ccccc3C(C)C)CN(C(=O)C[C@@H](C)C(=O)O)C2)c(OC(F)F)n1", "note": "[Ex 12-80, (R)-4-(3-((2-(difluoromethoxy)-6-methylpyridin-3-yl)carbamoyl)-3-(2-isopropylphenyl)azetidin-1-yl)-2-methyl-4-oxobutanoic acid]", "values": [{"measurement": "IC50", "result": 18, "unit": "nM"}]}, {"molecule": "CC(=O)N(O)CC(=O)N1CC(C(=O)Nc2ccc(C)nc2OC(F)F)(c2ccccc2C(C)C)C1", "note": "[Ex 12-136, 1-(N-acetyl-N-hydroxyglycyl)-N-(2-(difluoromethoxy)-6-methylpyridin-3-yl)-3-(2-isopropylphenyl)azetidine-3-carboxamide]", "values": [{"measurement": "IC50", "result": 9, "unit": "nM"}]}, {"molecule": "Cc1ccc(NC(=O)C2(c3ccccc3C(C)C)CN(C(=O)CN[C@@H](C)CO)C2)c(OC(F)F)n1", "note": "[Ex 12-59, (S)-N-(2-(difluoromethoxy)-6-methylpyridin-3-yl)-1-((R)-(1-hydroxypropan-2-yl)glycyl)-3-(2-isopropylphenyl)azetidine-3-carboxamide]", "values": [{"measurement": "IC50", "result": 10, "unit": "nM"}]}, {"molecule": "Cc1ccc(NC(=O)C2(c3ccccc3C(C)C)CN(Cc3n[nH]cc3C(=O)O)C2)c(OC(F)F)n1", "note": "[Ex 11-40, 3-((3-((2-(difluoromethoxy)-6-methylpyridin-3-yl)carbamoyl)-3-(2-isopropylphenyl)azetidin-1-yl)methyl)-1H-pyrazole-4-carboxylic acid]", "values": [{"measurement": "IC50", "result": 270, "unit": "nM"}]}, {"molecule": "CC(C)c1ccccc1C1(C(=O)Nc2cccnc2OC(F)F)CN(C(=O)CC(C)(C)C(=O)O)C1", "note": "[Ex 12-84, 4-(3-((2-(difluoromethoxy)pyridin-3-yl)carbamoyl)-3-(2-isopropylphenyl)azetidin-1-yl)-2,2-dimethyl-4-oxobutanoic acid]", "values": [{"measurement": "IC50", "result": 51, "unit": "nM"}]}, {"molecule": "CC(C)c1ccccc1C1(C(=O)Nc2ncc(Cl)cc2OC(F)F)CN(S(N)(=O)=O)C1", "note": "[Ex 81-3, N-(5-chloro-3-(difluoromethoxy)pyridin-2-yl)-3-(2-isopropylphenyl)-1-sulfamoylazetidine-3-carboxamide]", "values": [{"measurement": "IC50", "result": 2, "unit": "nM"}]}, {"molecule": "Cc1ccc(NC(=O)C2(c3ccccc3C3CCC3)CN(C(=O)CC(C)(C)C(=O)O)C2)c(OC(F)F)n1", "note": "[Ex 31-2, 4-(3-(2-cyclobutylphenyl)-3-((2-(difluoromethoxy)-6-methylpyridin-3-yl)carbamoyl)azetidin-1-yl)-2,2-dimethyl-4-oxobutanoic acid]", "values": [{"measurement": "IC50", "result": 6, "unit": "nM"}]}, {"molecule": "COC(=O)CC1(CN2CC(C(=O)Nc3ccc(C)nc3OC(F)F)(c3ccccc3C(C)C)C2)CC1", "note": "[Ex 11-67, Methyl 2-(1-((3-((2-(difluoromethoxy)-6-methylpyridin-3-yl)carbamoyl)-3-(2-isopropylphenyl)azetidin-1-yl)methyl)cyclopropyl)acetate]", "values": [{"measurement": "IC50", "result": 326, "unit": "nM"}]}, {"molecule": "Cc1ccc(NC(=O)C2(c3ccccc3C(C)C)CCN(C(=O)OCC(=O)O)CC2)c(OC(F)F)n1", "note": "[Ex 14-3, 2-((4-((2-(difluoromethoxy)-6-methylpyridin-3-yl)carbamoyl)-4-(2-isopropylphenyl)piperidine-1-carbonyl)oxy)acetic acid]", "values": [{"measurement": "IC50", "result": 6, "unit": "nM"}]}, {"molecule": "CCOC(=O)C(C)(C)NC(=O)N1CC(C(=O)Nc2ccc(C)nc2OC(F)F)(c2ccccc2C(C)C)C1", "note": "[Ex 17-12, ethyl 2-(3-((2-(difluoromethoxy)-6-methylpyridin-3-yl)carbamoyl)-3-(2-isopropylphenyl)azetidine-1-carboxamido)-2-methylpropanoate]", "values": [{"measurement": "IC50", "result": 11, "unit": "nM"}]}, {"molecule": "Cc1ccc(NC(=O)C2(c3ccccc3C(C)C)CN(C(=O)C[C@@H](O)CC(=O)O)C2)c(OC(F)F)n1", "note": "[Ex 12-105, (R)-5-(3-((2-(difluoromethoxy)-6-methylpyridin-3-yl)carbamoyl)-3-(2-isopropylphenyl)azetidin-1-yl)-3-hydroxy-5-oxopentanoic acid]", "values": [{"measurement": "IC50", "result": 54, "unit": "nM"}]}, {"molecule": "COC(=O)Cn1cccc1CN1CC(C(=O)Nc2ccc(C)nc2OC(F)F)(c2ccccc2C(C)C)C1", "note": "[Ex 11-41, methyl 2-(2-((3-((2-(difluoromethoxy)-6-methylpyridin-3-yl)carbamoyl)-3-(2-isopropylphenyl)azetidin-1-yl)methyl)-1H-pyrrol-1-yl)acetate]", "values": [{"measurement": "IC50", "result": 67, "unit": "nM"}]}, {"molecule": "CC(=O)N(CC(=O)N1CC(C(=O)Nc2ccc(C)nc2OC(F)F)(c2ccccc2C(C)C)C1)OCc1ccccc1", "note": "[Ex 12-135, 1-(N-acetyl-N-(benzyloxy)glycyl)-N-(2-(difluoromethoxy)-6-methylpyridin-3-yl)-3-(2-isopropylphenyl)azetidine-3-carboxamide]", "values": [{"measurement": "IC50", "result": 8, "unit": "nM"}]}, {"molecule": "Cc1ccc(NC(=O)C2(c3ccccc3C(C)C)CN(CC#N)C2)c(OC(F)F)n1", "note": "[Ex 11-88, 1-(cyanomethyl)-N-(2-(difluoromethoxy)-6-methylpyridin-3-yl)-3-(2-isopropylphenyl)azetidine-3-carboxamide]", "values": [{"measurement": "IC50", "result": 6, "unit": "nM"}]}, {"molecule": "Cc1ccc(NC(=O)C2(c3ccccc3C(C)C)CCN(CCO)CC2)c(OC(F)F)n1", "note": "[Ex 11-3, N-(2-(difluoromethoxy)-6-methylpyridin-3-yl)-1-(2-hydroxyethyl)-4-(2-isopropylphenyl)piperidine-4-carboxamide]", "values": [{"measurement": "IC50", "result": 32, "unit": "nM"}]}]}
